Laboratory results as given in the supplement of paper PMC11061612.

What was measured:
Assay in all cases: Bliss excess, mean over the matrix (fraction); higher = more synergy
[1] = system: BFTC-905 (Bladder Carcinoma)
How it was run: (§1)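 Bliss excess equals the observed combination effect minus the expected value EA + EB − EA·EB, where EA and EB are the effects of each agent alone. Combination Emax is the second-highest inhibition within the matrix. Inhibition was scaled from CellTiter-Glo 2.0 luminescence, with 0 set by vehicle wells and 1 by blank wells, after 72 hours of two-drug dosing of cells plated in 1536-well plates.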

CHP-212 (Neuroblastoma) = system: CHP-212 (Neuroblastoma)
How it was run: as §1

[2] = system: COLO-678 (Colorectal Carcinoma)
How it was run: as §1

[3] = system: DND-41 (T-Lymphoblastic Leukemia)
How it was run: as §1

ES1 (Ewing's Sarcoma) = system: ES1 (Ewing's Sarcoma)
How it was run: as §1

[4] = system: GR-ST (B-Lymphoblastic Leukemia)
How it was run: as §1

[5] = system: HL-60 (Acute Myeloid Leukemia)
How it was run: as §1

[6] = system: K-562 (Chronic Myelogenous Leukemia)
How it was run: as §1

[7] = system: KARPAS-45 (T-Lymphoblastic Leukemia)
How it was run: as §1

[8] = system: KCL-22 (Chronic Myelogenous Leukemia)
How it was run: as §1

[9] = system: KM12 (Colorectal Carcinoma)
How it was run: as §1

[10] = system: L-540 (Hodgkin's Lymphoma)
How it was run: as §1

LN-18 (Glioblastoma) = system: LN-18 (Glioblastoma)
How it was run: as §1

[11] = system: MOLT-16 (T-Lymphoblastic Leukemia)
How it was run: as §1

NCI-H2818 (Mesothelioma) = system: NCI-H2818 (Mesothelioma)
How it was run: as §1

[12] = system: PANC-08-13 (Pancreatic Carcinoma)
How it was run: as §1

[13] = system: SR (Other Blood Carcinomas)
How it was run: as §1

[14] = system: SW837 (Colorectal Carcinoma)
How it was run: as §1

[15] = system: TOV-112D (Ovarian Carcinoma)
How it was run: as §1

WM-115 (Melanoma) = system: WM-115 (Melanoma)
How it was run: as §1

SMILES	Bliss excess [1]	Bliss excess (CHP-212 (Neuroblastoma))	Bliss excess [2]	Bliss excess [3]	Bliss excess (ES1 (Ewing's Sarcoma))	Bliss excess [4]	Bliss excess [5]	Bliss excess [6]	Bliss excess [7]	Bliss excess [8]	Bliss excess [9]	Bliss excess [10]	Bliss excess (LN-18 (Glioblastoma))	Bliss excess [11]	Bliss excess (NCI-H2818 (Mesothelioma))	Bliss excess [12]	Bliss excess [13]	Bliss excess [14]	Bliss excess [15]	Bliss excess (WM-115 (Melanoma))
COc1nnc2ccc(N3CCC(c4ccc(OCCN5CCN(C)C(=O)[C@H]5C)cc4)CC3)nn12 [AZD5153] + Cn1cnc2c(F)c(Nc3ccc(Br)cc3Cl)c(C(=O)NOCCO)cc21 [Selumetinib] (first compound max 1 µM, 7x7, partner max 10 µM)	0.0113	-0.0285	-0.0382	0.0425	-0.0511	-0.0578	0.0707	-0.001	0.0362	0.0841	-0.0166	-0.0441	0.0152	-0.0353	-0.0031	0.0924	-0.0614	-0.0187	0.0303	0.15
Cc1c2c(nn1C)CSCc1cc(n(C)n1)CSc1cc(c3ccccc3c1)OCCCc1c(C(=O)O)n(C)c3c-2c(Cl)ccc13 [AZD5991] + C1CN(CCC1(C(=O)N[C@@H](CCO)C2=CC=C(C=C2)Cl)N)C3=NC=NC4=C3C=CN4 [Capivasertib] (first compound max 1 µM, 7x7, partner max 3 µM)	0.0226	-0.0066	-0.0078	0.0038	0.0708	-0.0244	-0.0315	0.0462	0.0484	0.0067	0.0136	0.0152	0.0306	-0.0113	0.0054	-0.0235	0.0447	-0.0191	-0.0181	0.0165
Cc1c2c(nn1C)CSCc1cc(n(C)n1)CSc1cc(c3ccccc3c1)OCCCc1c(C(=O)O)n(C)c3c-2c(Cl)ccc13 [AZD5991] + C=CCn1c(=O)c2cnc(Nc3ccc(N4CCN(C)CC4)cc3)nc2n1-c1cccc(C(C)(C)O)n1 [AZD1775] (first compound max 1 µM, partner max 1 µM)	-0.0212	-0.0508	-0.0614	-0.0375	-0.0524	-0.0402	-0.0149	0.0092	-0.0189	-0.035	0.0031	-0.0127	-0.0087	0.01	0.112	0.0156	-0.045	0	-0.017	-0.0328
Cc1c2c(nn1C)CSCc1cc(n(C)n1)CSc1cc(c3ccccc3c1)OCCCc1c(C(=O)O)n(C)c3c-2c(Cl)ccc13 [AZD5991] + CCN(CCO)CCCOc1ccc2c(Nc3cc(CC(=O)Nc4cccc(F)c4)[nH]n3)ncnc2c1 [AZD2811] (first compound max 1 µM, 7x7, partner max 1 µM)	0.11	-0.0496	-0.0673	0.0265	0.0915	-0.0742	-0.0001	0.086	-0.0409	0.0736	0.058	0.0788	-0.029	-0.0114	-0.0116	0.0135	0.178	-0.0341	0.0906	-0.0726
Cc1c2c(nn1C)CSCc1cc(n(C)n1)CSc1cc(c3ccccc3c1)OCCCc1c(C(=O)O)n(C)c3c-2c(Cl)ccc13 [AZD5991] + CN(C)CCCOc1ccc(-c2ccc3ncc4c(c3c2)n(C2CCOCC2)c(=O)n4C)cn1 [AZD0156] (first compound max 1 µM, 7x7, partner max 1 µM)	0.0304	-0.0538	-0.0427	0.0195	0.0092	-0.112	0.006	0.0048	-0.0403	0.0191	-0.0453	-0.0021	0.0444	-0.0302	-0.0052	-0.0158	0.0246	0.0004	-0.0265	-0.0136
Cc1c2c(nn1C)CSCc1cc(n(C)n1)CSc1cc(c3ccccc3c1)OCCCc1c(C(=O)O)n(C)c3c-2c(Cl)ccc13 [AZD5991] + C[C@@H]1COCCN1C2=NC(=NC(=C2)C3(CC3)[S@](=N)(=O)C)C4=C5C=CNC5=NC=C4 [AZD6738] (first compound max 1 µM, 7x7, partner max 10 µM)	0.0113	0.0122	-0.0899	0.0215	0.0292	-0.129	-0.0069	-0.0091	0.0077	-0.0163	0.0321	0.0278	0.037	0.0043	0.0148	0.0337	0.0941	0.0152	0.0477	0.0041
